From paper PMC3796470, “BdorCSP2 Is Important for Antifeed and Oviposition-Deterring Activities Induced by Rhodojaponin-III against Bactrocera dorsalis” (PLoS ONE, 2013)

Tests used:
BdorCSP2 [1] = target: T1, BdorCSP2 (Bactrocera dorsalis, UniProt S5TKX2); test: fluorescent probe titration with Scatchard analysis; format: binding
T1 construct: gene CSP2; mature BdorCSP2 (signal peptide removed), recombinant from E. coli BL21 (DE3), His-tag-removed; GenBank KC897022
T1 sequence (S5TKX2 23-156): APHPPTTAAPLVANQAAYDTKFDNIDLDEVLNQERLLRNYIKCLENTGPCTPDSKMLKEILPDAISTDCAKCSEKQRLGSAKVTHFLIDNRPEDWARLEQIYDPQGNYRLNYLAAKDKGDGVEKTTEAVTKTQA

BdorCSP2 [2] = target: T1, BdorCSP2; test: competitive fluorescence binding assay, displacement of 1-NPN

Row | Structure (SMILES) | Kd (BdorCSP2 [1]) | Kd (BdorCSP2 [2])
1 | c1ccc(Nc2cccc3ccccc23)cc1 [N-phenyl-1-naphthylamine] | 2.71 µM | –
2 | CC1(C)[C@H]2O[C@H]2[C@H]2[C@](C)(O)[C@@H]3CC[C@@H]4[C@@H](O)[C@@]3(C[C@@H](O)[C@@]21O)C[C@@]4(C)O [Rhodojaponin-III] | – | 34.6 µM
